{"source": "paper PMC4880976", "about": "“Pharmacologic rationale for the NK1R antagonist, aprepitant as adjunctive therapy in HIV” (Journal of Translational Medicine, 2016)", "key": {"human PBMC": {"test_system": "human PBMC", "experiment": "SP dependent cytokine and chemokine production by PBMC, multiplex assay", "assay_type": "cell-based", "conditions": "aprepitant 10 µM with SP 10 µM, 24 h", "experimental": "For cytokine and PD-1 assessment experiments freshly isolated peripheral blood mononuclear cell (PBMC) purchased from the Human Immunology Core Facility of The University of Pennsylvania School of Medicine (Philadelphia, PA) were cultured in RPMI medium supplemented with 10 % FBS overnight. Some cultures were treated with SP (10 µM) aprepitant (10 µM) or DMSO (0.001 %, vehicle for aprepitant). Cytokine concentrations were measured in supernatants using multiplex assay 24 h after SP/aprepitant treatment (see below). For PD-1 expression SP and aprepitant were added at day 0 and PD-1 expression was monitored daily for up to 8 days using flow cytometry.\nConcentrations of pro-inflammatory cytokines and chemokines in supernatants of human PBMC were measured using human Cytokine/Chemokine Magnetic Bead Panel—Premixed 30 Plex, HCYTMAG-60K-PX30 (Millipore, Billerica, MA, USA) as recommended by the manufacturers.\nFig. 5 SP dependent up regulation of cytokine and chemokine production by human PBMC* is inhibited by aprepitant. *Freshly isolated PBMC from normal donors were incubated for 24 h with SP and/or Aprepitant (10 µM each) as indicated. Control cultures were either left untreated of incubated with DMSO (vehicle for aprepitant). Pro-inflammatory markers were measured in supernatants using MILLIPORE Human Cytokine/Chemokine Magnetic Bead Panel."}, "anxiety-related behavior": {"test_system": "anxiety-related behavior", "experiment": "Anxiety-related behavior in SIV infected rhesus macaque (video recordings)", "assay_type": "in vivo", "conditions": "125 mg/day", "experimental": "Blood was collected for PK sampling on days 1, 7 and 14 and trough samples were collected prior to dosing on days 3, 5, 7, 11 and 13. […] Videotaped recordings were analyzed using Observer XT® (Noldus IT). Animals were sacrificed and necropsied after 1 year.\nFig. 4 Anxiety-related behavior* time course in SIV infected rhesus macaque receiving aprepitant at 125 mg/day or placebo. *Anxiety-related behavior was calculated based on the following parameters: body shake, hypervigilant scanning, self-licking and self-grooming, scratching, unresponsive inactivity and yawning."}, "HIV-1 Bal": {"test_system": "HIV-1 Bal", "experiment": "HIV infection of monocyte-derived macrophages (MDM) ex vivo, HIV gag mRNA by real time RT-PCR", "assay_type": "cell-based", "quoted_text": "Blood samples were collected from the antecubital vein and monocytes were isolated as described below.\nFor HIV infectivity experiments PBMC were isolated from freshly collected blood samples using Ficoll-Paque (GE Healthcare, Uppsala, Sweden) gradient. Monocytes were purified by adhesion as described [26, 27] and cultured in 48-well plates at a density of 0.25 × 10^6/0.5 ml/well in DMEM supplemented with 10 % FBS for 7 days before HIV-1 infection. Macrophages from each subject were exposed to four experimental conditions (none, 1, 5 and 10 µM of aprepitant). 7-day-cultured MDM were incubated with aprepitant for 2 h before infection with HIV-1 Bal (NIH AIDS Reagent Program), 5 ng/well based on p24 antigen assay, corresponding to a MOI of 0.02 determined using MAGI cells expressing CD4 and CCR5 (NIH AIDS Reagent Program). Cells were incubated with virus overnight, and then extensively washed to remove unbound virus. The culture medium and the aprepitant were replaced twice weekly. At day 7 post HIV infection, cellular RNA was extracted from the MDM for assessment of HIV gag mRNA expression using real time RT-PCR assays.\nTotal RNA was extracted from MDM cells using RNeasy kit (Qiagen), and the potential DNA contamination was eliminated by on-column DNase digestion as instructed by the manufacturer (Qiagen). Total RNA (1 µg) was reverse transcribed using AffinityScript QPCR cDNA Synthesis kit ([sequence], Cedar Creek, TX) with random primer as instructed by the manufacture. 1 µl of the resulting cDNA was used as a template for real-time PCR amplification. […] Corresponding fragments of assayed genes cloned in pGEM-T vector (Promega) were used to generate standard curves.\nFollowing differentiation for 7 days MDM were infected with HIV Bal. Macrophages from each subject were exposed to all four experimental conditions as indicated (1, 5 and 10 μM concentrations of aprepitant). Control, HIV infected MDM were treated with aprepitant vehicle, 0.001 % DMSO. RNA was collected 7 days after infection and assayed for expression of HIV GAG by real time RT PCR using the GAPDH housekeeping gene for normalization. GAG expression in control (non-treated) cultures were designated as 100 %; *p < 0.0001 between all groups including control were obtained through one-way ANOVA with post-test analysis by Bonferroni’s Multiple Comparison Test indicating significant difference between all groups in pair wise comparison. b Aprepitant added to DMEM 10 % FBS media or MDM cultures at a concentration of 1 μM (0.53 μg/ml) on day 0 and measured on days 0, 1, 2, 3 and 7. Results are presented as mean ± SD for three independent experiments"}, "NK1R": {"test_system": "NK1R", "design": "method as in PMID 12562139, PMID 15121485", "conditions": "165 mg dose, PET; cited from earlier work"}, "[1]": {"experiment": "Protein binding by ultrafiltration in human and rhesus macaque plasma and FBS", "assay_type": "in vitro ADME", "conditions": "three experiments", "experimental": "These experiments were conducted to assess the linkage between in vitro and in vivo exposure targets in order to more accurately project clinical dose requirements for aprepitant. Protein binding was assessed via ultrafiltration and detection of aprepitant in various biofluids was conducted via LC–MS/MS.\nUltrafiltration units (CorningR Spin-X UF; MWCO 10 K) and filtrate collection tubes were obtained from Corning (Tewksbury, MA). Control human plasma was obtained by centrifugation of blood obtained from CHOP blood bank. Stock solutions of aprepitant in methanol were added to human plasma (1 %, v/v) to provide plasma samples at a nominal concentration of 10 μg/mL. This was further diluted with human plasma to provide 5, 2 and 0.5 μg/mL solutions. Similarly, aprepitant at above four concentration were also prepared in 10 % FBS in DMEM or 10 % FBS in water. Samples were incubated at 37 °C for 30 min to ensure equilibrium was established. Following incubation, an aliquot of sample was removed for determination of the drug concentration post incubation. Triplicate 500 μL aliquots of the samples were added to the sample reservoir of the UF unit with filtrate collection tubes. All ultrafiltration units were centrifuged at 13,000 rpm (15,000×g) for 15 min at 4 °C. […] Internal standard solution (500 μL) was added to each sample analyzed by the validated LC–MS/MS method described above. […]"}}, "note": "Like-named read-outs stand apart in the source and are kept apart here."}
{"smiles": "C[C@@H](O[C@H]1OCCN(Cc2n[nH]c(=O)[nH]2)[C@H]1c1ccc(F)cc1)c1cc(C(F)(F)F)cc(C(F)(F)F)c1", "note": "[aprepitant]", "values": [{"measurement": "effect on SP induced cytokine and chemokine production", "setting": "human PBMC", "result": "blocked"}, {"measurement": "anxiety-related behavior versus control", "setting": "anxiety-related behavior; after first 4 weeks (weeks 12-20)", "result": "significant reduction of anxiety"}, {"measurement": "anxiety-related behavior versus control", "setting": "anxiety-related behavior; first 4 weeks after infection", "result": "no significant difference"}, {"measurement": "IC50", "setting": "HIV-1 Bal; Human immunodeficiency virus 1, BAL, Macrophage, read-out: free drug IC50 concentration", "result": "~0.00265", "unit": "µg/mL"}, {"measurement": "IC50", "setting": "HIV-1 Bal; Human immunodeficiency virus 1, BAL, Macrophage, read-out: total IC50 concentration", "result": 2.65, "unit": "µg/mL"}, {"measurement": "IC50", "setting": "HIV-1 Bal; Human immunodeficiency virus 1, Macrophage, 168 h, human MDM, HIV-1 Bal, gag mRNA day 7, total concentration in DMEM 10 % FBS, read-out: IC50 (ED50 in abstract) for inhibition of HIV infection in MDM", "result": "~5", "unit": "µM"}, {"measurement": "IC90", "setting": "HIV-1 Bal; Human immunodeficiency virus 1, Macrophage, human MDM, HIV-1 Bal, total concentration, read-out: IC90 for inhibition of HIV infection in MDM", "result": "~10", "unit": "µM"}, {"measurement": "receptor occupancy", "setting": "NK1R", "result": "97–99%"}, {"measurement": "binding to human and rhesus macaque plasma and FBS", "setting": "[1]", "result": "99.79–99.95%"}]}
